This note sets out measurements from US20120277209A1, “PYRAZINE COMPOUNDS AS PHOSPHODIESTERASE 10 INHIBITORS” (Amgen Inc., priority 2009, published 2012).

The target of the first assay is PDE10 (UniProt Q9Y233). The experiment in a line: PDE10 enzyme inhibition, IMAP TR-FRET assay (MPDE10A7 Enzyme Activity and Inhibition). Type of assay: biochemical. The following applies: IC50 class against PDE10; read-out: IC50. As for the experimental part:
All compounds were divided in five classes based on their IC50 values against PDE10. The range of the IC50 in each class is as follows:
An IMAP TR-FRET assay was used to analyze the enzyme activity (Molecular Devices Corp., Sunnyvale Calif.). 5 μL of serial diluted PDE10A (BPS Bioscience, San Diego, Calif.) or tissue homogenate was incubated with equal volumes of diluted fluorescein labeled cAMP or cGMP for 60 min in 384-well polystyrene assay plates (Corning, Corning, N.Y.) at room temperature. After incubation, the reaction was stopped by adding 60 μL of diluted binding reagents and was incubated for 3 hours to overnight at room temperature. The plates were read on an Envision (Perkin Elmer, Waltham, Mass.) for time resolved fluorescence resonance energy transfer. The data were analyzed with GraphPad Prism (La Jolla, Calif.).
Enzyme Inhibition. To check the inhibition profile, 5 μL of serial diluted compounds were incubated with 5 μL of diluted PDE10 enzyme (BPS Bioscience, San Diego, Calif.) or tissue homogenate in a 384-well polystyrene assay plate (Corning, Corning, N.Y.) for 30 min at room temperature. After incubation, 10 μL of diluted fluorescein labeled cAMP or cGMP substrate were added and incubated for 60 min at room temperature. The reaction was stopped by adding 60 μL of diluted binding reagents and plates were read on an Envision (Perkin Elmer, Waltham, Mass.) for time resolved fluorescence resonance energy transfer. The data were analyzed with GraphPad Prism (La Jolla, Calif.).
The tabulated IC50 data represent an average IC50 data for each compound.
For the compound `CC(C)(C)OC(=O)N1CCC(CO)(c2nccnc2Oc2ccc(Nc3nc4ccccc4s3)cc2)CC1` [Example 206, tert-butyl 4-(3-(4-(benzo[d]thiazol-2-ylamino)phenoxy)pyrazin-2-yl)-4-(hydroxymethyl)piperidine-1-carboxylate], the IC50 was 25 to 100 nM. On to `COc1ncccc1-c1nccnc1Oc1ccc(Nc2nc3ccc(F)cc3s2)cc1` [Example 153, 6-fluoro-N-(4-(3-(2-methoxypyridin-3-yl)pyrazin-2-yloxy)phenyl)benzo[d]thiazol-2-amine], for which the IC50 was 25 to 100 nM. Still for that read-out and setting: the result for `COC(=O)C1(c2nccnc2Oc2ccc(Nc3nc4ccccc4s3)cc2)CCOCC1` [Example 212, methyl 4-(3-(4-(benzo[d]thiazol-2-ylamino)phenoxy)pyrazin-2-yl)tetrahydro-2H-pyran-4-carboxylate] reads < 25 nM; that for `CN(C)CC(=O)N1CCC(c2nccnc2Oc2ccc(Nc3nc4ccccc4s3)cc2)CC1` [Example 246, 1-(4-(3-(4-(benzo[d]thiazol-2-ylamino)phenoxy)pyrazin-2-yl)piperidin-1-yl)-2-(dimethylamino) ethanone], < 25 nM; that for `CN(C)CC(=O)N1CCC(c2nccnc2Oc2ccc(C(=O)c3nc4ccccc4[nH]3)cc2)CC1` [Example 245, 1-(4-(3-(4-(1H-benzo[d]imidazole-2-carbonyl)phenoxy)pyrazin-2-yl)piperidin-1-yl)-2-(dimethylamino) ethanone], < 25 nM. The same measure, in the same setting: under `COc1cnccc1-c1nccnc1Oc1ccc(C(=O)c2nc3ccccc3[nH]2)cc1` [Example 113, (1H-benzo[d]imidazol-2-yl)(4-(3-(3-methoxypyridin-4-yl)pyrazin-2-yloxy)phenyl)methanone] stands 25 to 100 nM; under `O=C(c1ccc(Oc2nccnc2C2CCOCC2)cc1)c1nc2ccccc2[nH]1` [Example 181, (1H-benzo[d]imidazol-2-yl)(4-(3-(tetrahydro-2H-pyran-4-yl)pyrazin-2-yloxy)phenyl)methanone], < 25 nM; under `CN1CCCC1CCOc1nccnc1Oc1ccc(C(=O)c2nc3ccccc3[nH]2)cc1` (centres unmarked) [Example 175], 100 to 250 nM. The same measure, in the same setting: the result for `O=C(c1ccc(Oc2nccnc2C(=O)NCCO)cc1)c1nc2ccccc2[nH]1` [Example 258, 3-(4-(1H-benzo[d]imidazole-2-carbonyl)phenoxy)-N-(2-hydroxyethyl)pyrazine-2-carboxamide] reads 25 to 100 nM; that for `c1ccc2sc(Nc3ccc(Oc4nccnc4-c4cnc5[nH]ccc5c4)cc3)nc2c1` [Example 141, N-(4-(3-(1H-pyrrolo[2,3-b]pyridin-5-yl)pyrazin-2-yloxy)phenyl)benzo[d]thiazol-2-amine], 25 to 100 nM. On to `CN1CCC(c2nccnc2Oc2ccc(C(=O)c3nc4ccccc4[nH]3)cc2)=CC1=O` [Example 252, 4-(3-(4-(1H-benzo[d]imidazole-2-carbonyl)phenoxy)pyrazin-2-yl)-1-methyl-5,6-dihydropyridin-2(1H)-one], for which the IC50 was < 25 nM. On the same count and under the same terms, the result for `O=C(c1ccc(Oc2nccnc2-c2cccnc2)cc1)c1nc2ccccc2[nH]1` [Example 123, (1H-benzo[d]imidazol-2-yl)(4-(3-(pyridin-3-yl)pyrazin-2-yloxy)phenyl)methanone] reads < 25 nM. In the case of `Fc1ccc2nc(Nc3ccc(Oc4nccnc4C4CCOCC4)cc3)sc2c1` [Example 214, 6-fluoro-N-(4-(3-(tetrahydro-2H-pyran-4-yl)pyrazin-2-yloxy)phenyl)benzo[d]thiazol-2-amine], the half-inhibitory concentration (IC50) is < 25 nM. Take `CC1(C)C=C(c2nccnc2Oc2ccc(C(=O)c3nc4ccccc4[nH]3)cc2)C(=O)CC1` [Example 132, 2-(3-(4-(1H-benzo[d]imidazole-2-carbonyl)phenoxy)pyrazin-2-yl)-4,4-dimethylcyclohex-2-enone]: the IC50 was 25 to 100 nM. On the same count and under the same terms, under `CC(O)C(=O)N1CCC(c2nccnc2Oc2ccc(Nc3nc4ccccc4s3)cc2)CC1` (centres unmarked) [Example 239, 1-(4-(3-(4-(benzo[d]thiazol-2-ylamino)phenoxy)pyrazin-2-yl)piperidin-1-yl)-2-hydroxypropan-1-one] stands < 25 nM. The same measure, in the same setting: under `COc1ncccc1-c1nccnc1Oc1ccc(C(=O)c2nc3ccccc3n2C)cc1` [Example 119, (4-(3-(2-methoxypyridin-3-yl)pyrazin-2-yloxy)phenyl)(1-methyl-1H-benzo[d]imidazol-2-yl)methanone] stands < 25 nM; under `c1cncc(-c2nccnc2Oc2ccc(Nc3nc4ccccc4s3)cc2)c1` [Example 148, N-(4-(3-(pyridin-3-yl)pyrazin-2-yloxy)phenyl)benzo[d]thiazol-2-amine], < 25 nM. Still for that read-out and setting: under `N#CCC(=O)N1CCC(c2nccnc2Oc2ccc(C(=O)c3nc4ccccc4[nH]3)cc2)CC1` [Example 247, 3-(4-(3-(4-(1H-benzo[d]imidazole-2-carbonyl)phenoxy)pyrazin-2-yl)piperidin-1-yl)-3-oxopropanenitrile] stands < 25 nM; under `Fc1cccc2nc(Nc3ccc(Oc4nccnc4Cl)cc3)sc12` [Example 100, N-(4-(3-chloropyrazin-2-yloxy)-phenyl)-7-fluorobenzo[d]thiazol-2-amine], 1000 to 5000 nM; under `COCC1CCCN(c2nccnc2Oc2ccc(Nc3nc4ccccc4s3)cc2)C1` (centres unmarked) [Example 98, N-(4-(3-(3-(methoxymethyl)-piperidin-1-yl)pyrazin-2-yloxy)-phenyl)benzo[d]thiazol-2-amine], 25 to 100 nM.

The assay is the same for the next values; noted with them: PDE10 enzyme inhibition; average IC50 data for each compound; read-out: Average IC50.
As for `COC(=O)[C@@H]1CCN(c2nccnc2Oc2ccc(C(=O)c3nc4ccccc4[nH]3)cc2)C1` [drawing 838], the concentration for half-maximal inhibition (IC50) stood at 1.35 nM.

As to `COc1cc(-c2nccnc2Oc2ccc(C(=O)c3nc4ccccc4[nH]3)cc2)ccn1` [drawing 883], the IC50 amounted to 7.56 nM. On to `Fc1ccc2nc(Nc3ccc(Oc4nccnc4Cl)cc3)sc2c1` [drawing 833], for which the half-maximal inhibitory concentration (IC50) was 538 nM. Same read-out and setting: under `O=C(c1ccc(Oc2nccnc2OCC2CC2)cc1)c1nc2ccccc2[nH]1` [drawing 846] stands 164 nM. As for `COc1nc2ccccc2cc1-c1nccnc1Oc1ccc(C(=O)c2nc3ccccc3[nH]2)cc1` [drawing 943], the 50% inhibitory concentration (IC50) came out at 224 nM. On the same count and under the same terms, under `N#CCC(=O)N1CCC(c2nccnc2Oc2ccc(C(=O)c3nc4ccccc4[nH]3)cc2)CC1` [drawing 997] stands 0.025 nM. In the case of `O=C(c1ccc(Oc2nccnc2C2CCN(CCF)CC2)cc1)c1nc2ccccc2[nH]1` [drawing 963], the concentration for half-maximal inhibition (IC50) came to 2.5 nM.

For `O=C(c1ccc(Oc2nccnc2N2CC[C@H](O)C2)cc1)c1nc2ccccc2[nH]1`, the IC50 turned out to be 5.12 nM. Same read-out and setting: under `CC(=O)N1CCC(c2nccnc2Oc2ccc(C(=O)c3nc4ccccc4[nH]3)cc2)CC1` [drawing 889] stands 0.182 nM; under `O=C(c1ccc(Oc2nccnc2N2CCC[C@H](CCO)C2)cc1)c1nc2ccccc2[nH]1` (stereo in doubt), 1.86 nM. Still for that read-out and setting: under `C[C@]1(O)CC[C@@H](c2nccnc2Oc2ccc(C(=O)c3nc4ccccc4[nH]3)cc2)CC1` [drawing 923] stands 1.42 nM. Same read-out and setting: under `CCOC(=O)[C@H]1CCCN(c2nccnc2Oc2ccc(C(=O)c3nc4ccccc4[nH]3)cc2)C1` [drawing 831] stands 0.843 nM; under `CN(C)CCOc1nccnc1Oc1ccc(C(=O)c2nc3ccccc3[nH]2)cc1` [drawing 857], 486 nM.

With `Cc1cc(-c2nccnc2Oc2ccc(Nc3nc4ccccc4s3)cc2)ccn1` [drawing 750], the concentration for half-maximal inhibition (IC50) was found to be 17.5 nM. On the same count and under the same terms, the result for `O[C@@H]1CCC[C@@H](c2nccnc2Oc2ccc(Nc3nc4ccccc4s3)cc2)C1` [drawing 912] reads 2.54 nM.

As for `CCCOc1nccnc1Oc1ccc(C(=O)c2nc3ccccc3[nH]2)cc1` [drawing 905], the IC50 was 25.2 nM. Still for that read-out and setting: under `OC[C@@H]1CCN(c2nccnc2Oc2ccc(Nc3nc4ccccc4s3)cc2)C1` [drawing 732] stands 2.89 nM.

On to `COc1ncccc1-c1nccnc1Oc1ccc(C(=O)c2nc3ccccc3[nH]2)cc1` [drawing 866], for which the IC50 was 0.321 nM. Same read-out and setting: the result for `O=C(c1ccc(Oc2nccnc2OCc2ccncc2)cc1)c1nc2ccccc2[nH]1` [drawing 859] reads 14 nM; that for `c1ccc2sc(Nc3ccc(Oc4nccnc4-c4cncnc4)cc3)nc2c1` [drawing 778], 12.9 nM; that for `Fc1ccc2nc(Nc3ccc(Oc4nccnc4C4CCOCC4)cc3)sc2c1` [drawing 872], 0.661 nM. Still for that read-out and setting: under `C[C@@H](O)C1CCN(c2nccnc2Oc2ccc(C(=O)c3nc4ccccc4[nH]3)cc2)CC1` (stereo in doubt) stands 0.749 nM; under `O=C(c1ccc(Oc2nccnc2Cl)cc1)c1nc2cccc(F)c2[nH]1`, 406 nM. In the case of `O=C(c1ccc(Oc2nccnc2C2(F)CCOCC2)cc1)c1nc2ccccc2[nH]1` [drawing 924], the half-maximal inhibitory concentration (IC50) worked out at 1.83 nM. Same read-out and setting: under `O=C(c1ccc(Oc2nccnc2[C@H]2CCC[C@@H](O)C2)cc1)c1nc2ccccc2[nH]1` [drawing 909] stands 0.961 nM; under `O=C(c1ccc(Oc2nccnc2C2=CCOCC2)cc1)c1nc2ccccc2[nH]1`, 3.36 nM. Same read-out and setting: the result for `O=C(c1ccc(Oc2nccnc2N2CC[C@H](CO)C2)cc1)c1nc2ccccc2[nH]1` reads 2.54 nM.

The term IC50 denotes the concentration needed to halve the response being measured.
